Measured values reported in patent US20040038888A1 (priority 2002, published 2004).

Tested on: hippocampal NSC/neural progenitors cells
Assay: PACAP/BrdU infusion, BrdU labelling of the dentate gyrus
Assay type: in vivo, mouse
Settings: 600 nM pump concentration, 0.5 μl/hr into the lateral ventricle, 3.5 days, relative to vehicle
Protocol: 10 week old male mice (C57B1/2), maintained on a 12 hr light/dark cycle with food and water ad libidum, were infused in the right lateral ventricle with PACAP38 (Bachem), using a Alzet pump (1007D), for 3,5 days or 7 days at a daily dose of 31 ng/day (600 nM PACAP pump concentration infused at a rate of 0.5 μl/hr). Bromodeoxyuridine (BrdU) (50 mg/ml) was also included in the infusion vehicle (0.9% saline containing 1 mg/ml mouse serum albumin (Sigma)) to enable measurement of proliferation by quantitation of BrdU incorporation in the DNA. The group of infused with either PACAP/BrdU or vehicle/BrdU for 3,5 days and sacrificed at this time point. […]
Brains were cut into 14-μm coronal sections using a cryostat-microtome. […] After 1 hour of washing, the BrdU-antibody complex was detected using 0.05% diaminobenzidine with 0.01% H2O2, and counterstained with Hematoxylin. […]
For all BrdU labelling experiments, three to six sections per animal were analysed. […] The number of BrdU-labelled cells per area of dentate granule cell layer was counted manually. […] BrdU-positive cells were counted along 2×250 micrometer strips of the lateral ventricle wall (see FIG. 18). Area measurements of both the dentate granule cell layer and the “counted” region of the lateral ventricle wall (including the ependymal cell layer and subventricular zone) were made from each slide used for the cell counts. […]

## pituitary adenylate cyclase-activating polypeptide [PACAP]
  proliferation in the ipsilateral dentate gyrus (BrdU positive cells/mm^2): significant increase in proliferation
